Data: patent US10301624B2, “Targeting human satellite II (HSATII)” (The General Hospital Corporation, priority 2014, dated 2019)

Key:
Type in all cases: cell-based, human
SW620 = assay: Cell viability in 3D non-adherent and 2D adherent culture, SW620; conditions: SW620, non-adherent conditions, Nec-1 10 μM
Method: (§1) FIGS. 14A-D. Effect of Locked Nucleic Acids targeting HSATII on TP53 mutant Colorectal Cancer cell lines. […] Error bars represent standard deviation. P-value was calculated using student's two tailed t-test. *represents P<0.05.
(§2) Cells were transfected with LNAs either targeting HSATII or with non-specific control Locked Nucleic Acids at 500 nM concentrations using Lipofectamine 2000 according to manufacturer recommended conditions. Cells were trypsinized 24 hours after transfection and seeded at concentration of 1000 cells per well in 96 well plates either in 2 dimensional or 3 dimensional culture conditions. For 2D conditions, the cells were transferred to cell culture treated 96 well plates and grown in RPMI+10% FBS. For 3D conditions, cells were grown in (RPMI+10% FBS+) in ultra-low attachment 96 well plates.

DLD1 = assay: Cell viability in 3D non-adherent and 2D adherent culture, DLD1
Method: as §1, §2

HSATII-chr10 locus = assay: qPCR analysis on HSATII-chr10 locus after DNase I or RNase A treatment of COLO205 extracts; conditions: COLO205 cells, ddC 100 μM for two weeks vs DMSO
Description: FIGS. 3A-C. HSATII RNA-to-DNA conversion occurs through a reverse transcription mechanism. (A) qPCR analysis on HSATII-chr10 locus following DNAse I or RNase A treatment and reverse transcription of extracts obtained from COLO205 cells treated with DMSO or 2′, 3′-dideoxycytidine (ddC). (B) RIP lysates prepared from SW620 2D cultures or xenografts were immunoprecipitated with hTERT or IgG antibody, reverse transcribed and validated by qPCR for HSATII and TERC RNA enrichment. (C) qPCR analysis on HSATII-chr10 locus in COLO205 extracts 72 h after non-targeting (siNT) or TERT-targeting (siTERT) siRNA transfection. For all charts, values represent average of at least three independent experiments ±SEM. *P<0.05 (Student's t test).
All colon cancer cell lines were cultured in RPMI-1640+10% FBS+1% Pen/Strep (Gibco/Life Technologies). DMEM with the same supplements was used for 293T cells. For drug treatment, cells were cultured in presence of either DMSO or 100 μM 2′, 3′-dideoxycytidine (ddC, Sigma) for two weeks. […]
RNA was reverse transcribed using a SuperScript III First-Strand Synthesis kit (Invitrogen/Life Technologies) and cDNA was analyzed by qPCR using either Power SYBR-Green PCR Maser Mix or TaqMan Universal Master Mix on an ABI/PRISM 7500 platform (all reagents were from Applied Biosystems/Life Technologies). […]

HCT116 = assay: Cell growth in 3D and 2D culture, HCT116 (with or without shRNA TP53 knockdown); conditions: for susceptibility to ddC: HCT116 with shRNA TP53 knockdown
Method: (§3) FIGS. 15A-D. Effect of Locked Nucleic Acids targeting HSATII on TP53 wild type Colorectal Cancer cell lines. […] Error bars represent standard deviation. P-value was calculated using student's two tailed t-test.
FIGS. 19A-F. HCT116 cells are resistant to HSATII targeting and Reverse Transcriptase inhibition. […] Error bars represent standard deviation. P-value was calculated using student's two tailed t-test.
as §2
(§4) Stable cell lines carrying either one of two shRNAs targeting TP53, or a non-target shRNA using lentiviral infection, were generated.

COLO205 cells = assay: Proliferation assay (CellTiter-Glo), COLO205
Method: FIG. 8. Proliferation assay of DMSO- or ddC-treated COLO205 (top) and HCT116 (bottom) cells. Cells were seeded at a density of 5×10^2 cells/well in a 96-well plate and quantified daily using CellTiter-Glo luminescent cell viability assay.
(§5) For proliferation assays, cells were seeded at a density of 5×10^2 cells/well in a 96-well plate (Corning) in presence of DMSO/ddC (100 μM) or one day after transfection with control/HSATII antisense oligonucleotides. Daily quantification was performed using CellTiter-Glo luminescent cell viability assay (Promega) with a SpectraMax M5 microplate reader (Molecular Devices).
50 nM ON-TARGETplus Non-targeting pool siRNA (Thermo Scientific) and Mission Pre-designed TERT siRNAs (Sigma Aldrich) or 500 nM Negative Control and HSATII LNA antisense oligonucleotides (Exiqon) were electroporated into COLO205 cells according to the Neon Transfection System (Invitrogen/Life Technology) instructions using the following conditions: 1600V; pulse width 10; 3 pulses. 500 nM Negative Control/HSATII LNA antisense oligonucleotides were transfected in HCT116 and SW620 cells using Lipofectamine 2000 (Invitrogen/Life Technologies) according to the manufacturer's instructions.

HCT116 cells = assay: Proliferation assay (CellTiter-Glo), HCT116; conditions: cells without endogenous HSATII expression, adherent growth, ddC 100 μM vs DMSO
Method: as §5, with “FIG. 8. Proliferation assay of DMSO- or ddC-treated COLO205 (top) and HCT116 (bottom) cells. Cells were seeded at a density of 5×10^2 cells/well in a 96-well plate and quantified daily using CellTiter-Glo luminescent cell viability assay. For” for “For”, “control/[…]” for “control/HSATII”

HCT8 = assay: Cell growth in 3D and 2D culture, HCT8 (with or without shRNA TP53 knockdown)
Method: as §3
FIGS. 18A-F. TP53 knockdown sensitizes HCT8 cells to HSATII targeted Locked Nucleic Acids and Reverse Transcriptase inhibition. HCT8 colorectal cancer cells are resistant to the reverse transcriptase inhibitor ddC under 3D (A) and 2D (D) growth conditions. shRNA mediated knockdown of TP53 sensitizes the cells to reverse transcriptase inhibition under 3D (B-C), but not 2D (E-F) growth conditions. TP53 knockdown sensitizes HCT8 cells to HSATII targeted Locked Nucleic Acids under 3D (B-C), but not 2D (E-F) growth conditions. Error bars represent standard deviation. P-value was calculated using student's two tailed t-test. *represents P<0.05, **represents P<0.01.
as §2, §4

Q: Which “rescue of HSATII LNA-induced growth inhibition” value (SW620) does the source give for `CN1C(=O)C(Cc2c[nH]c3ccccc23)NC1=S` (stereo not drawn) [Nec-1, Necrostatin-1] here?
A: Its value is “rescued”.

Q: What about the “rescue of HSATII LNA-induced growth inhibition” value (DLD1; DLD1, non-adherent conditions, Nec-1 10 μM) of the same compound?
A: The value was “rescued”.

Q: With `Nc1ccn([C@H]2CC[C@@H](CO)O2)c(=O)n1` [ddC, 2′, 3′-dideoxycytidine] as the compound, how does the “HSATII RNA species” value (HSATII-chr10 locus) read?
A: The value was “increasing”.

Q: And the “levels of endogenous HSATII rdDNA” value (HSATII-chr10 locus)?
A: The value was “reduced”.

Q: And the “sensitivity to ddC” value (HCT116; HCT116, 2D growth conditions)?
A: The value was “resistant”.

Q: And the “sensitivity to ddC” value (HCT116; HCT116, 3D growth conditions)?
A: The value was “resistant”.

Q: And the “susceptibility to ddC” value (HCT116; 2D culture)?
A: The value was “resistance”.

Q: And the “susceptibility to ddC” value (HCT116; 3D culture)?
A: The value was “resistance”.

Q: And the cell proliferation (COLO205 cells; COLO205, ddC 100 μM vs DMSO)?
A: Its cell proliferation is “suppressed”.

Q: And the growth inhibition (DLD1; DLD1, 3 dimensional culture, ddC 5 μM)?
A: The growth inhibition was “significant growth inhibition”.

Q: And the cell proliferation (HCT116 cells)?
A: The cell proliferation was “no effect”.

Q: And the “sensitivity to ddC” value (HCT8; HCT8, 2D growth conditions)?
A: The value was “resistant”.

Q: What about the “sensitivity to ddC” value (HCT8; HCT8, 3D growth conditions) of the same compound?
A: The value was “resistant”.

Q: And the growth inhibition (HCT8; HCT8 with shRNA TP53 knockdown, 3D culture, ddC)?
A: Its growth inhibition is “significant growth inhibition”.

Q: With “SEQ ID NO:24: Locked nucleic acids (LNA) probes commercially purchased from Exiqon (GATTCCATTCGATGAT) specifically targeting HSATII (LNA-modified, pattern not given here)” as the compound, how does the cell proliferation (COLO205 cells; COLO205, 500 nM LNA antisense oligonucleotide vs negative control, five days) read?
A: The cell proliferation was “affected”.
